# Tests used:
# plantar muscle = assay: Wet weight of plantar muscle (absolute, atrophy rate, per body weight) in cast-immobilized rats; type: in vivo, rat; details: mean ± SD; for Atrophy Rate (plantar muscle): decrease of immobilized muscle wet weight relative to non-immobilized taken as 100; for Wet Weight of Plantar Muscle, Immobilized / Wet Weight of Plantar Muscle per Body Weight, Immobilized: immobilized leg
# Experimental: (§1) As test animals, 13 female 9-week-old rats of Fischer 344 strain (purchased from SLC Inc.) were used. The rats were preliminarily bred for 3 days in a chamber in which the temperature was adjusted to 22° C. under a bright-dark cycle where 07:00 to 19:00 was the bright period, and access to water and feed was ad libitum. After the preliminary breeding, the rats were divided into two groups, and a control feed was given to a control group consisting of 7 rats while a feed comprising CDP-choline (manufactured by Kyowa Hakko Kogyo Co., Ltd.) having the composition shown in Table 1 (hereinafter referred to as a CDP-choline feed) was given to the other group consisting of 6 rats for one day. Then, the right hind limb of each rat was immobilized in plaster cast under anesthesia with pentobarbital, followed by further feeding for one week under the above conditions. Thereafter, the rats were subjected to analysis with regard to the items shown below. In the test, two muscles, i.e., plantar muscle and soleus muscle located at the lower hind limbs of a rat, were used. Soleus muscle is a representative slow skeletal muscle in lower limbs where 80 to 90% of total muscle fibers are slow muscle fibers, and plantar muscle is a typical fast skeletal muscle where about 95% of total muscle fibers are fast muscle fibers. The rat was killed after body weight measurement, and the soleus muscle and plantar muscle of both the right and left lower hind limbs were quickly excised and washed with a physiological saline solution. After extraneous connective tissues, tendons, nerves, etc. were removed, the muscle wet weights of soleus muscle and plantar muscle were measured. The relative wet weight of muscle immobilized in a cast was determined for each rat based on the wet weight of muscle which was not immobilized in a cast, taken as 100, and the decrease in muscle weight was expressed as the atrophy rate. The wet weight of muscle relative to body weight was calculated by measuring the wet weight of both right and left soleus muscles and plantar muscles and dividing the obtained value by body weight. The wet weight of muscle per body weight excludes the influence of the difference in body weight on each muscle wet weight and reflects the muscle amount per body weight. The wet weight of soleus muscle per body weight is shown in Table 7, and the wet weight of plantar muscle per body weight is shown in Table 8.
# soleus muscle [1] = assay: Protein content of soleus muscle in cast-immobilized rats; type: in vivo, rat; details: mean ± SD; for Protein Content of Soleus Muscle, Non-immobilized: non-immobilized leg
# Experimental: As test animals, 13 female 9-week-old rats of Fischer 344 strain (purchased from SLC Inc.) were used. The rats were preliminarily bred for 3 days in a chamber in which the temperature was adjusted to 22° C. under a bright-dark cycle where 07:00 to 19:00 was the bright period, and access to water and feed was ad libitum. After the preliminary breeding, the rats were divided into two groups, and a control feed was given to a control group consisting of 7 rats while a feed comprising CDP-choline (manufactured by Kyowa Hakko Kogyo Co., Ltd.) having the composition shown in Table 1 (hereinafter referred to as a CDP-choline feed) was given to the other group consisting of 6 rats for one day. Then, the right hind limb of each rat was immobilized in plaster cast under anesthesia with pentobarbital, followed by further feeding for one week under the above conditions. Thereafter, the rats were subjected to analysis with regard to the items shown below. Soleus muscle was finely cut in a 1.15% potassium chloride solution and a homogenate thereof was prepared using a glass homogenizer. After the homogenate was appropriately diluted, its protein content was measured using the Protein Assay Kit of Biorad. A calibration curve was prepared using a 2 mg/ml BSA solution.
# soleus muscle [2] = assay: Degradation rate of muscle plasma protein of soleus muscle (tyrosine release); type: in vivo, rat; details: 2 hours incubation in Krebs-Henseleit bicarbonate buffer, mean ± SD; for Decomposition Rate of Muscle Plasma Protein of Soleus Muscle, Tyrosine, Non-immobilized: non-immobilized leg
# Experimental: As test animals, 13 female 9-week-old rats of Fischer 344 strain (purchased from SLC Inc.) were used. The rats were preliminarily bred for 3 days in a chamber in which the temperature was adjusted to 22° C. under a bright-dark cycle where 07:00 to 19:00 was the bright period, and access to water and feed was ad libitum. After the preliminary breeding, the rats were divided into two groups, and a control feed was given to a control group consisting of 7 rats while a feed comprising CDP-choline (manufactured by Kyowa Hakko Kogyo Co., Ltd.) having the composition shown in Table 1 (hereinafter referred to as a CDP-choline feed) was given to the other group consisting of 6 rats for one day. Then, the right hind limb of each rat was immobilized in plaster cast under anesthesia with pentobarbital, followed by further feeding for one week under the above conditions. Thereafter, the rats were subjected to analysis with regard to the items shown below. Weighed soleus muscle was pre-incubated for 30 minutes in a Krebs-Henseleit bicarbonate buffer under aeration with […]. The muscle was then transferred to fresh Krebs-Henseleit bicarbonate buffer, and incubated for 2 hours. The concentration of tyrosine in the buffer was measured, whereby the degradation rate of muscle plasma protein was calculated. The concentration of tyrosine was measured by the fluorescence method of […], et al. using 1-nitroso-2-naphthol [J. Lab. Clin. Med., 50, 733 (1957)] (excitation wavelength: 435 nm; fluorescence wavelength: 545 nm). In order to prepare a calibration curve, a 5 nmol/ml tyrosine solution prepared as a standard solution was appropriately diluted and the relationship between its concentration and fluorescence intensity was plotted. By using the calibration curve thus prepared, the concentration of tyrosine in the buffer tested was determined from its fluorescence intensity.
# C2C12 cells = assay: Increase of intracellular protein in differentiated C2C12 cells (Methylene Blue method); type: cell-based, mouse; details: 3 days; for Increase Rate of Intracellular Protein: control d0 = 0, control d3 = 100
# Experimental: C2C12 cells were purchased from Dainippon Pharmaceutical Co., Ltd. Culturing was carried out according to the method of Craig, et al. [Methods in Cell Biology, 52, 85 (1998)]. A medium for growth was prepared by addition of 50 ml of FBS (manufactured by Gibco; Cat. No. 10099-141) and 5 ml of penicillin-streptomycin (manufactured by Gibco; Cat. No. 15140-122) to 500 ml of D-MEM medium (manufactured by Gibco; Cat. No. 11885-084). A medium for differentiation was prepared by addition of 10 ml of inactivated horse serum (manufactured by Gibco; Cat. No. 26050-088) and 5 ml of penicillin-streptomycin to 500 ml of the D-MEM medium. C2C12 cells were seeded and cultured in a 75-cm^2 flask containing 15 ml of the medium for growth and were subcultured before reaching confluence. Culturing was carried out in a CO2 incubator under 5% CO2 concentration and 100% relative humidity. The cell suspension diluted to 5×10^4 cells/ml with the medium for growth was added to each well of type I collagen-coated 96-well plate (Iwaki; Cat. No. 4860-010) in an amount of 100 μl. After confirming that the growth was uniform, the medium was replaced by the differentiation medium. Myogenesis was confirmed under a microscope after culturing for 3 days, and then a CDP-choline-containing PBS (−) solution was added to the medium until its final concentration reached 1 mg/ml or 0.1 mg/ml, followed by further culturing. […] The amount of intracellular protein was measured according to the method of Oliver, et al. [Journal of Cell Science, 92, 513 (1989)]. […] After the solution was appropriately diluted, the absorption at 650 nm was measured using a microplate reader. To determine the rate of increase of intracellular protein, the value of the test group (group to which CDP-choline was added) after culturing for 3 days was calculated based on the value before addition of CDP-choline (do) taken as 0 and the concentration of intracellular protein in the control group (group to which no CDP-choline was added) after culturing for 3 days (d3) taken as 100.
# soleus muscle [3] = assay: Wet weight of soleus muscle (absolute, atrophy rate, per body weight) in cast-immobilized rats; type: in vivo, rat; details: mean ± SD; for Wet Weight of Soleus Muscle, Immobilized / Wet Weight of Soleus Muscle per Body Weight, Immobilized: immobilized leg; for Wet Weight of Soleus Muscle, Immobilized / Wet Weight of Soleus Muscle, Non-immobilized: 1 wt % CDP-choline feed; for Wet Weight of Soleus Muscle, Non-immobilized / Wet Weight of Soleus Muscle per Body Weight, Non-immobilized: non-immobilized leg
# Experimental: as §1
smiles,measurement,setting,value
"C[N+](C)(C)CCOP(=O)(O)OP(=O)([O-])OC[C@H]1O[C@@H](n2ccc(N)nc2=O)[C@H](O)[C@@H]1O [CDP-Choline, Cytidine diphosphate choline]",Atrophy Rate (plantar muscle),plantar muscle,15.8 ± 5.8%
same,Atrophy Rate (plantar muscle),plantar muscle; listed as CDP-choline,significantly lower
same,"Wet Weight of Plantar Muscle, Immobilized",plantar muscle; 1 wt % CDP-choline feed,104.0 ± 2.7 mg
same,"Wet Weight of Plantar Muscle, Immobilized","plantar muscle; 1 wt % CDP-choline feed, listed as CDP-choline",significantly higher than the control group
same,"Wet Weight of Plantar Muscle per Body Weight, Immobilized",plantar muscle,0.731 ± 0.029 mg/g body weight
same,"Wet Weight of Plantar Muscle per Body Weight, Immobilized",plantar muscle; listed as CDP-choline,significantly higher than the control group
same,"Wet Weight of Plantar Muscle, Non-immobilized","plantar muscle; non-immobilized leg, 1 wt % CDP-choline feed",123.8 ± 7.4 mg
same,"Wet Weight of Plantar Muscle per Body Weight, Non-immobilized",plantar muscle; non-immobilized leg,0.870 ± 0.052 mg/g body weight
same,"Protein Content of Soleus Muscle, Immobilized",soleus muscle [1]; immobilized leg,128.4 ± 10.0 mg protein/g tissue
same,"Protein Content of Soleus Muscle, Non-immobilized",soleus muscle [1],173.2 ± 15.0 mg protein/g tissue
same,"Protein Content of Soleus Muscle, Non-immobilized",soleus muscle [1]; listed as CDP-choline,significantly higher than the control group
same,"Decomposition Rate of Muscle Plasma Protein of Soleus Muscle, Tyrosine, Immobilized",soleus muscle [2]; immobilized leg,322.1 ± 98.0 nmol/g tissue/2 hours
same,"Decomposition Rate of Muscle Plasma Protein of Soleus Muscle, Tyrosine, Non-immobilized",soleus muscle [2],135.5 ± 50.1 nmol/g tissue/2 hours
same,"Decomposition Rate of Muscle Plasma Protein of Soleus Muscle, Tyrosine, Non-immobilized",soleus muscle [2]; listed as CDP-choline,significantly lower than the control group
same,Increase Rate of Intracellular Protein,C2C12 cells; CDP-choline 0.1 mg/ml,134
same,Increase Rate of Intracellular Protein,C2C12 cells; CDP-choline 1 mg/ml,141
same,Amount of intracellular protein in C2C12 cells,C2C12 cells; CDP-choline 0.1 and 1 mg/ml,increased in a CDP-choline concentration dependent manner
same,Atrophy Rate (soleus muscle),soleus muscle [3]; decrease of immobilized muscle wet weight relative to non-immobilized taken as 100,21.0 ± 6.5%
same,"Wet Weight of Soleus Muscle, Immobilized",soleus muscle [3],61.0 ± 5.2 mg
same,"Wet Weight of Soleus Muscle, Immobilized",soleus muscle [3]; listed as CDP-choline,no difference in wet weight of muscle
same,"Wet Weight of Soleus Muscle per Body Weight, Immobilized",soleus muscle [3],0.428 ± 0.027 mg/g body weight
same,"Wet Weight of Soleus Muscle per Body Weight, Immobilized",soleus muscle [3]; listed as CDP-choline,no difference
same,"Wet Weight of Soleus Muscle, Non-immobilized",soleus muscle [3],77.2 ± 3.9 mg
same,"Wet Weight of Soleus Muscle, Non-immobilized",soleus muscle [3]; listed as CDP-choline,no difference in wet weight of muscle
same,"Wet Weight of Soleus Muscle per Body Weight, Non-immobilized",soleus muscle [3],0.542 ± 0.030 mg/g body weight
same,"Wet Weight of Soleus Muscle per Body Weight, Non-immobilized",soleus muscle [3]; listed as CDP-choline,no difference
